Laboratory results reported in patent US20240182382A1, “ALIPHATIC 18F-RADIOLABELING OF A TETRAZINE PRECURSOR” (UNIVERSITY OF COPENHAGEN, priority 2021, published 2024).

How the values were obtained:
CC49-TCO [1] = assay: Ex vivo blocking assay: blocking of [111In]Tz-Tg binding to CC49-TCO in LS174T tumor xenografts; design: species or system nude BALB/c mice; conditions: for Normalized Tumor blocking effect: change in tumor uptake of [111In]Tz-Tg 22 h p.i., Tz administered 1 h prior, normalized to non-blocked control, mean from n = 3 mice/group
Method: FIG. 3 show a schematic display of the blocking assay. The blocking effect of non-radiolabeled Tz was determined as the change in tumor uptake of [111 1n]Tz-Tg 22 h p.i. Each Tz was administered 1 h prior to [111 1n]Tz-Tg and the uptake normalized to a group of animals were no blocking was performed (control).
The inventors have recently developed a blocking assay that allows to assess the in vivo ligation performance of unlabeled tetrazine derivatives. This assay omits time-consuming development of radiolabeled tetrazines for every ligand to be tested. In this assay, binding of [^111In]Tz-Tg (see structure in example 7), a literature described pretargeted imaging agent, is blocked in vivo to the pretargeting vector CC49-TCO (described in Stéen, J.; Jørgensen, J. T.; Christoph, D.; Battisti, U. M.; Nørregaard, K.; Edem, P.; Bratteby, K.; Shalgunov, V.; Martin, W.; Svatunek, D.; Poulie, C. B. M.; Hvass, L.; Simon, M.; Thomas, W.; Rossin, R.; Robillard, M.; Kristensen, J. L.; Mikula, H.; Kjaer, A.; Herth, M. Lipophilicity and Click Reactivity Determine the Performance of Bioorthogonal Tetrazine Tools in Pretargeted in Vivo Chemistry; 2020 Dec. 24, 2020.), which was administered 72 h prior. The blocking effect of the unlabeled tetrazine derivatives is afterwards quantified via an ex vivo biodistribution study and normalized to the binding of [^111In]Tz-Tg determined without any blocking.
All animal studies were approved by the Danish Animal Welfare Council, ministry of Justice. Five weeks old female nude BALB/c mice (Charles River, Sulzfeld, Germany) were allowed to acclimatize for one week with access to water and chow ad libitum. Human colon cancer cell line (LS174T; obtained from ATCC) was cultured in minimum essential medium (MEM) supplemented with 10% fetal bovine serum, 1% L-glutamine, 1% sodium pyruvate, 1% non-essential amino acids, and 1% penicillin-streptomycin at 37° C. and 5% CO2. Cells were harvested by trypsinization at a confluence of 70-90% and subcutaneous tumors were established in the left flank of the 6 weeks old animals by inoculation of 5×10^6 LS174T cells resuspended in sterile PBS (100 μL) and allowed to grow for 7-10 days. Tumors were measured using a caliper and the volume calculated using the formula volume=1/2 (length×width 2).
Tumor-bearing animals were matched in groups based on their tumor volume (tumor volumes of ˜100-300 mm^3, n=3 in each group) and were administered 100 μg/100 μL of CC49-TCO (100 μg/100 μL, ˜7 TCO/mAb) per mouse. After 3 days, animals were injected with non-radioactive Tz (10-20 nmol). After 1 h, they were administered with IniTz-Tg (˜13 MBq/100 μL, 1-2 nmol) via the tail vein. [^111In]Tz-Tg was obtained and radiolabeled as previously described in Borjesson, P. K.; Jauw, Y. W.; de Bree, R.; Roos, J. C.; Castelijns, J. A.; Leemans, C. R.; van Dongen, G. A.; Boellaard, R. Radiation dosimetry of 89 Zr-labeled chimeric monoclonal antibody U36 as used for immuno-PET in head and neck cancer patients. J Nucl Med 2009, 50, 1828-36. The mice were euthanized after 22 h and tumor, blood, heart, lung, liver, spleen, kidney, and muscle were resected. All tissues were weighted, and the radioactivity measured in a gamma counter (Wizard2, Perkin Elmer) and data was corrected for decay, tissue weight and injected amount of radioactivity. FIG. 3 illustrate the workflow of the blocking assay.

[2] = Bench stability by analytical HPLC; assay type: physicochemical
Method: The stability of [^18F]13 and it precursor (28) was investigated by analytical HPLC. [^18F]13 was stable for at least 4 hours and therefore, sufficient for most applications (FIG. 5A). […] The process could be prevented storing the precursor (28) at −20° C. as a solid—at least for 3 months (FIG. 5B).

[3] = Reaction kinetics of tetrazines with TCO (stopped-flow, pseudo-first-order); assay type: physicochemical; conditions: Second order rate constants with TCO at 37° C. in PBS
Method: Reaction kinetics of tetrazines with standard TCO were determined using pseudo-first-order measurements with an excess of the TCO compound in PBS (pH=7.4) at 37.0±0.1° C. following the decrease of tetrazine absorbance at 535 nm. Measurements were performed in triplicates using an SX20 stopped-flow photometer (Applied Photophysics, UK) equipped with a 535 nm LED light source. Data analysis was performed using Prism 6 (Graphpad) to determine the observed rate constants which were converted into secondorder rate constants through dividing by the TCO concentration.
Second-order rate constants for the reaction with TCO in PBS at 37° C. were determined by pseudo-first order measurements in a SX20 stopped flow photometer (Applied Photophysics).

[4] = Tetrazine core reactivity test with TCO-PNP; assay type: physicochemical; conditions: for tetrazine core after radiolabeling: analytical chromatogram before and after TCO-PNP addition
Method: • a) The reaction between [^18F]13 TCO-PNP was performed by mixing the formulated [^18F]13 (200 μL) with 5 μL of the commercially available TCO-PNP ester dissolved in DMF (5 mg/mL) in an analytical HPLC vial. The solution was gently shaken and left for 1 min before it was injected on the analytical HPLC for analysis. • b) The reaction between [^18F]14 and TCO-PNB was performed by mixing the formulated [^18F]14 (200 μL) with 5 μL of the commercially available TCO-PNB ester dissolved in DMF (5 mg/mL) in an analytical HPLC vial. The solution was gently shaken and left for 1 min before it was injected on the analytical HPLC for analysis.

CC49-TCO [5] = assay: Pretargeted PET/CT imaging in LS174T tumor xenograft bearing mice; assay type: in vivo, Balb/c nude mice; conditions: for tumor-to-blood (T/B) ratio: 1 h; for tumor uptake: mice pretreated with CC49-TCO 72 h prior; for tumor-to-muscle ratio in comparison: compared to [64Cu]Cu-NOTA-PEG7-H-Tz, [111In]Tz-Tg and ZZ; for tumor-to-muscle (T/M) ratio: image derived, 1 h p.i., animals pretargeted with CC49-TCO; for pharmacokinetics: pretargeted experiments in mice
Method: The ability of [^18F]13 and [^18F]14 to be used as a pretargeting imaging agents was evaluated using a similar pretargeted setup that was used for the ex vivo blocking study in example 7. Mice were administered with CC49-TCO 72 h prior to administration of [^18F]13 or [^18F]14 where after PET/CT scanning was performed 1 h later. Control animals were injected with unconjugated mAb CC49 instead of CC49-TCO, but were otherwise treated exactly the same. After PET/CT scanning, animals were euthanized and an ex vivo biodistribution performed.
A) Pretargeted imaging of [^18F]13: Pretargeted imaging of [^18F]13 as tested in vivo using the TAG-72 targeting antibody CC49 in human colorectal cancer xenograft tumors LS174T. Tumors were established in 7-8 week old Balb/c nude mice and after one week, the animals were injected i.v. with either 50 ug […] TCO-modified CC49 (CC49-TCO, ˜7 TCO/mAb), or non-modified CC49 (control) (n=4 per group). 72 hours later, ^18F-13 (1.74±0.319 (mean±SD) MBq/100 μL (55.3 GBq/μmol) were injected i.v., followed by PET/CT-scan (Inveon®, Siemens Medical Solutions), one hour post injection. PET data was acquired in an energy window of 350-650 KeV and a time resolution of 6 ns followed by a CT scan (360 projections, 65 kV, 500 pA and 400 ms). PET and CT images were aligned by rigid affine registration, after which 3D regions of interest (ROI) were created on the full CT tumor volume, as well as heart and muscle tissue to quantify uptake of [^18F]13 (FIG. 6). Additionally, selected organs were harvested for ex vivo biodistribution. The radioactivity in the tissues were determined using a gamma counter (Wizard 2 , Perkin Elmer). Data was corrected for decay, tissue weight and the injected dose of radioactivity. GraphPad Prism 9 (GraphPad Software) was used for statistical analyses and plotting data. Statistical difference between mean % ID/g values were analyzed using Welch's T-test. Results were considered significant when p<0.05.
B) Pretargeted imaging of [^18]14: LS174T xenografts were established in mice as previously described. When tumors reached a size of ˜100 mm3 animals were matched based on their tumor volume and divided into two groups (tumor volumes of, n=5/group), and injected iv with 50 μg in 100 μL of either CC49-TCO or CC49. After 72 h the animals were administered iv with [^18F ]14(4.74±1.39 MBq in 100 μL) and PET/CT (Inveon, Siemens Medical Solutions, USA) scanned 1 h later, using a PET acquisition time of 5 min, an energy window of 350-650 KeV and a time resolution of 6 ns;
followed by a continuous 360 projections/360° CT scan, acquired with a x-ray tube voltage of 65 kV, a tube anode current of 500 pA and an exposure time per projection of 400 ms (FIG. 8). Mice were anaesthetized breathing 3% sevoflurane (5% for induction) mixed in 35% O2 in N2 and during scans the body temperature of the mice was kept stable using a heating pad.
Signograms from PET scans were reconstructed using a 3-dimensional maximum a posteriori algorithm with correction for scatter and attenuation. The mean percentage of injected dose per grams (% ID/g) was determined by manually creating regions of interest (ROI) on co-registered PET/CT images (Inveon Research Workplace software, Siemens Medical Solutions, USA).

SMILES: O=C(O)C(F)(F)F.O=C(O)CN(CCF)Cc1cc(F)cc(-c2nncnn2)c1 [Compound 9, N-(carboxymethyl)-2-fluoro-N-(3-fluoro-5-(1,2,4,5-tetrazin-3-yl)benzyl)ethanaminium 2,2,2-trifluoroacetate]
- Normalized Tumor blocking effect (CC49-TCO [1]): 76

SMILES: O=C(O)C(F)(F)F.O=C(O)CN(CCF)Cc1cccc(-c2nncnn2)c1 [Compound 10, N-(3-(1,2,4,5-tetrazin-3-yl)benzyl)-N-(carboxymethyl)-2-fluoroethanaminium 2,2,2-trifluoroacetate]
- Normalized Tumor blocking effect (CC49-TCO [1]): 75

SMILES: O=C(O)C(F)(F)F.O=C(O)CN(CCF)Cc1ccc(-c2nncnn2)cc1F [Compound 11, N-(carboxymethyl)-2-fluoro-N-(2-fluoro-4-(1,2,4,5-tetrazin-3-yl)benzyl)ethanaminium 2,2,2-trifluoroacetate]
- Normalized Tumor blocking effect (CC49-TCO [1]): 69

SMILES: O=C(O)C(F)(F)F.O=C(O)CN(CCF)Cc1ccc(-c2nncnn2)cc1 [Compound 12, N-(4-(1,2,4,5-tetrazin-3-yl)benzyl)-N-(carboxymethyl)-2-fluoroethanaminium 2,2,2-trifluoroacetate]
- Normalized Tumor blocking effect (CC49-TCO [1]): 69

SMILES: O=C(O)C(F)(F)F.O=C(O)CN(CC(=O)O)Cc1ccc(-c2nncnn2)cc1OCCF [Compound 13, 1-Carboxy-N-(carboxymethyl)-N-(2-(2-fluoroethoxy)-4-(1,2,4,5-tetrazin-3-yl)benzyl) methanaminium 2,2,2-trifluoroacetate]
- Normalized Tumor blocking effect (CC49-TCO [1]): 98

SMILES: O=C(O)C(F)(F)F.O=C(O)CN(CC(=O)O)Cc1ccc(-c2nnc(-c3ccc(OCCF)cn3)nn2)nc1 [Compound 14, 1-Carboxy-N-(carboxymethyl)-N-((6-(6-(5-(2-fluoroethoxy)pyridin-2-yl)-1,2,4,5-tetrazin-3-yl)pyridin-3-yl)methyl)methanaminium 2,2,2-trifluoroacetate]
- blocking effect (CC49-TCO [1]; blocking of [111In]Tz-Tg binding to CC49-TCO in vivo): 99%
- Normalized Tumor blocking effect (CC49-TCO [1]): 99

SMILES: CC(C)(C)OC(=O)CN(CC(=O)OC(C)(C)C)Cc1ccc(-c2nncnn2)cc1OCCOS(=O)(=O)c1ccc([N+](=O)[O-])cc1 [Compound 28, Di-tert-butyl 2,2′-((2-(2-(((4-nitrophenyl)sulfonyl)oxy)ethoxy)-4-(1,2,4,5-tetrazin-3-yl)benzyl)azanediyl)diacetate]
- stability of precursor ([2]; analytical HPLC): decomposed over time
- time stable ([2]; dissolved (25 mg/mL) in DMSO and frozen at −20° C.): at least 3 months
- time stable ([2]; stored at −20° C. as a solid): ≥ 3 months

SMILES: O=C(O)CN(CC(=O)O)Cc1ccc(-c2nnc(-c3ccc(OCCF)cn3)nn2)nc1 [Tz-Tg, reference compound]
- Normalized Tumor blocking effect (CC49-TCO [1]): 99
- Rate constant [3]: 73742 M⁻¹ s⁻¹

SMILES: O=C(O)CN(CC(=O)O)Cc1ccc(-c2nncnn2)cc1OCC[18F] [[^18F]13]
- ability to react with TCO-PNP ([4]; after 4 hours at r.t.): quantitatively
- tetrazine core after radiolabeling [4]: intact
- Stability at r.t. over 4 hours ([2]; after 4 hours at r.t.): no signs of decomposition
- time stable ([2]; formulated tracer at r.t., analytical HPLC): at least 4 hours
- tumor-to-blood (T/B) ratio (CC49-TCO [5]): 1.2
- Uptake in tissues beside tumor and blood (CC49-TCO [5]; PET/CT 1 h p.i.): low
- tumor uptake, control (CC49-TCO [5]; PET/CT 1 h p.i., control mice injected with unconjugated CC49 72 h prior, mean±S.E.M): 0.01±0.01 % ID/g
- tumor uptake (CC49-TCO [5]; PET/CT 1 h p.i., mean±S.E.M): 1.87±0.31 % ID/g
- tumor-to-muscle ratio in comparison (CC49-TCO [5]): highest
- tumor-to-muscle (T/M) ratio (CC49-TCO [5]): 20.1
- pharmacokinetics (CC49-TCO [5]): favorable

SMILES: O=C(O)CN(CC(=O)O)Cc1ccc(-c2nnc(-c3ccc(OCC[18F])cn3)nn2)nc1 [[^18F]14]
- tetrazine core after radiolabeling [4]: intact
- tumor-to-blood (T/B) ratio (CC49-TCO [5]): 0.8
- Uptake in muscle tissue (CC49-TCO [5]; PET/CT 1 h p.i.): generally low
- uptake in blood (heart used as a surrogate) (CC49-TCO [5]; PET/CT 1 h p.i., CC49-TCO group): high
- tumor uptake (CC49-TCO [5]; PET/CT 1 h p.i., mean±S.E.M): 1.8±0.3 % ID/g
- tumor-to-muscle ratio in comparison (CC49-TCO [5]): highest
- tumor-to-muscle (T/M) ratio (CC49-TCO [5]): 9.0
- pharmacokinetics (CC49-TCO [5]): favorable
